Where a name gives a salt, the structure may show the parent alone.
Experiments:
Mouse neuro 2a cells = assay: Neurite outgrowth of mouse neuroblastoma neuro 2a cells (Table 7); assay type: cell-based; details: 0.3 mM; mean ± S.D.; hydrochloride
How it was run: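 Neuro-2a cells seeded at 1,000 cells/well in DMEM with 10% FCS, cultured one day at 37 °C, 5% CO2, then 24 h with compound (up to 6 concentrations, triplicate). Fixed with glutaraldehyde, methylene blue stained; percentage of cells bearing neurites ≥2× cell long diameter counted microscopically (>200 cells).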

[1] = test system: Mouse neuroblastoma cells NS-20Y; assay: Neurite appearance in mouse neuroblastoma NS-20Y cells (Table 8); assay type: cell-based; details: hydrochloride;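 also: cells grown in polyornithine-coated dishes, with timing counted from the start of culture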
crushed sciatic nerves = assay: Recovery of the interdigital distance in rats with crushed sciatic nerves (Table 9); assay type: in vivo, rat (male Wistar)
Experimental: Rats whose sciatic nerves were crushed were prepared as a model for peripheral nervous disorders and the effects of the compounds of this invention on it were tested. It was made clear that the compounds of the present invention have an effect of promoting recovery of the interdigit distance and the weight of the soleus muscle to normal values.
Curative effect on rats with crushed sciatic nerves: The curing effect of the compound of the invention was tested on rats having crushed sciatic nerves as a model of peripheral nervous disorder using (1) a change in the action of the hind paw with the crushed sciatic nerves and (2) a change in the weight of the muscle as an index of the course of degeneration and regeneration of peripheral nerves.
In the experiment, male Wistar rats (6 weeks old), 10-15 per group, were used. The sciatic nerves were crushed by a method similar to the method of Yamatsu et al. (see Kiyomi Yamatsu, Takenori Kaneko, Akifumi Kitahara and Isao Ohkawa, Journal of Japanese Pharmacological Society, 72, 259-268 (1976) and the method of Hasegawa et al. (see Kazuo Hasegawa, Naoji Mikuni and Yutaka Sakai, Journal of Japanese Pharmacological Society, 7 4 721-734 (1978). Specifically, under anesthesia with pentobarbital (40 mg/kg, i.p.), the left side sciatic nerve was exposed at the femur and a given site was crushed with hemostat (2ram in width) for 30 seconds. After crushing, the operated site was immediately sitched. Vincristine, known to delay the regeneration of peripheral nerves, was administered intraperitoneally at 100 μg/kg per week.
Test compounds selected from the compounds of the invention were administered intraperitoneally or orally once a day from the day of operation to the 30th day. A group to which 0.9% saline was administered was used as control.
According to the method of Hasegawa [Hasegawa, K., Experientia, 34, 750-751 ( 1978)], the distance between the first and fifth digits of the hind paw was measured and the ratio of a crushed-side distance to a normal-side distance was calculated.
*Compound 274 is orally administered to a group of rats with the crushed

mouse = assay: Acute toxicity in mouse (Table 10); assay type: in vivo; details: in vivo, ip
Experimental: The acute toxicity of the compounds of the invention was examined by the following method.
Male ddy-strain 5-week old mice, 4-6 per group, were used as experimental animals. Each of the compounds was dissolved or suspended in saline and administered perorally (p.o.) or intraperitoneally (i.p.), and the toxicity of the compound was assessed 24 hours after the administration.

For `O=C1CCCN1c1ccnc(N2CCCCC2)n1` [Compound 274, 4-(2-oxopyrrolidino)-2-(4-piperidino) pyrimidine hydrochloride], the “Ratio of the number of cells having neurites with a length of at least two times as large as the diameter of cells to the total number of cells” value (Mouse neuro 2a cells) was 25.8 ± 3.5%, the “The number of cells in which neurites appeared/Total number of cells” value ([1]; 24 hour, 0.1 mM) was 4/50 and the “The number of cells in which neurites appeared/Total number of cells” value ([1]; 24 hour, 0.2 mM) was 6/50. The “The number of cells in which neurites appeared/Total number of cells” value ([1]; 48 hour, 0.2 mM) was 4/50, the “The number of cells in which neurites appeared/Total number of cells” value ([1]; 48 hour, 0.5 mM) was 6/50 and the “Rate of recovery of the interdigital distance” value (shortened to “Rate”) (crushed sciatic nerves; 7.5 mg/kg orally, 7 days after crush) was 42.6 ± 6.8%. The “Rate” value (crushed sciatic nerves; 7.5 mg/kg orally, 14 days after crush) was 37.6%, the “Rate” value (crushed sciatic nerves; 7.5 mg/kg orally, 16 days after crush) was 38.4% and the “Rate” value (crushed sciatic nerves; 7.5 mg/kg orally, 18 days after crush) was 40.9 ± 6.2%. For the same molecule, the “Rate” value (crushed sciatic nerves; 7.5 mg/kg orally, 20 days after crush) was 45.6 ± 14.0%, the “Rate” value (crushed sciatic nerves; 7.5 mg/kg orally, 22 days after crush) was 46.8 ± 13.2% and the “Rate” value (crushed sciatic nerves; 7.5 mg/kg orally, 24 days after crush) was 48.2%. For the same molecule, the “Rate” value (crushed sciatic nerves; 7.5 mg/kg orally, 26 days after crush) was 54.8%, the “Rate” value (crushed sciatic nerves; 7.5 mg/kg orally, 28 days after crush) was 66.9 ± 19.6% and the “Rate” value (crushed sciatic nerves; 7.5 mg/kg orally, 30 days after crush) was 64.0 ± 21.2%. For the same molecule, the “Rate” value (crushed sciatic nerves; 15 mg/kg orally, 7 days after crush) was 39.8 ± 5.2%, the “Rate” value (crushed sciatic nerves; 15 mg/kg orally, 14 days after crush) was 38.2% and the “Rate” value (crushed sciatic nerves; 15 mg/kg orally, 16 days after crush) was 39.4%. The “Rate” value (crushed sciatic nerves; 15 mg/kg orally, 18 days after crush) was 40.5 ± 4.2%, the “Rate” value (crushed sciatic nerves; 15 mg/kg orally, 20 days after crush) was 46.7 ± 7.3% and the “Rate” value (crushed sciatic nerves; 15 mg/kg orally, 22 days after crush) was 50.0 ± 10.0%. The “Rate” value (crushed sciatic nerves; 15 mg/kg orally, 24 days after crush) was 56.8%, the “Rate” value (crushed sciatic nerves; 15 mg/kg orally, 26 days after crush) was 62.2% and the “Rate” value (crushed sciatic nerves; 15 mg/kg orally, 28 days after crush) was 65.5 ± 19.8%. The “Rate” value (crushed sciatic nerves; 15 mg/kg orally, 30 days after crush) was 70.1 ± 21.4%, the “Rate” value (crushed sciatic nerves; 30 mg/kg orally, 7 days after crush) was 38.8 ± 4.4% and the “Rate” value (crushed sciatic nerves; 30 mg/kg orally, 14 days after crush) was 39.2%. The “Rate” value (crushed sciatic nerves; 30 mg/kg orally, 16 days after crush) was 38.3%, the “Rate” value (crushed sciatic nerves; 30 mg/kg orally, 18 days after crush) was 40.8 ± 4.5% and the “Rate” value (crushed sciatic nerves; 30 mg/kg orally, 20 days after crush) was 43.8 ± 6.7%. For the same molecule, the “Rate” value (crushed sciatic nerves; 30 mg/kg orally, 22 days after crush) was 47.8 ± 11.5%, the “Rate” value (crushed sciatic nerves; 30 mg/kg orally, 24 days after crush) was 57.0% and the “Rate” value (crushed sciatic nerves; 30 mg/kg orally, 26 days after crush) was 60.9%. The “Rate” value (crushed sciatic nerves; 30 mg/kg orally, 30 days after crush) was 73.6 ± 20.0% and the “Estimated LD50” value (mouse) was 250 to 500 mg/kg.

From patent US5358945A, “Pyrimidine compound and pharmaceutically acceptable salts thereof” (Mitsui Petrochemical Industries, Ltd., priority 1990, dated 1994)
